# Measurements: ChEMBL document CHEMBL3784981, “Anti-inflammatory, analgesic and antioxidant activities of novel kyotorphin-nitroxide hybrid molecules” (Bioorg Med Chem Lett, 2016)
# Active and inactive are the calls of the source.
# What was measured:
# [1] = tested on: Mus musculus; test: Analgesic activity in ICR mouse assessed as pain threshold at 0.1 umol/kg administered through oral gavage after 150 mins by tail flick method; format: functional
# [2] = Antioxidant activity in rat PC12 cells assessed as H2O2 radical scavenging activity measured as cell survival preincubated with compound for 1 hr measured after 14 hrs by MTT assay; format: functional, cell-based; conditions: pc-12
# [3] = tested on: Mus musculus; test: Analgesic activity in ICR mouse assessed as pain threshold at 0.1 umol/kg administered through oral gavage after 30 mins by tail flick method; format: functional
# [4] = Antioxidant activity in sodium nitroprusside-stimulated rat PC12 cells assessed as NO radical scavenging activity measured as cell survival preincubated with compound for 1 hr followed by addition of sodium nitroprusside for 2 measured after 14 hrs by MTT assay; format: functional, cell-based; conditions: pc-12
# [5] = tested on: Mus musculus; test: Analgesic activity in ICR mouse assessed as pain threshold at 0.1 umol/kg administered through oral gavage after 90 mins by tail flick method; format: functional
# [6] = tested on: Mus musculus; test: Analgesic activity in ICR mouse assessed as pain threshold at 0.1 umol/kg administered through oral gavage after 120 mins by tail flick method; format: functional
# [7] = tested on: Mus musculus; test: Antiinflammatory activity in ICR mouse assessed as inhibition of xylene-induced ear edema at 0.1 umol/kg, po administered 30 mins prior to xylene challenge measured after 2hrs; format: functional
# [8] = Antioxidant activity in H2O2/Fe(II)-stimulated rat PC12 cells assessed as OH radical scavenging activity measured by cell survival preincubated with compound for 1 hr measured after 14 hrs by MTT assay; format: functional, cell-based; conditions: pc-12
# [9] = tested on: Mus musculus; test: Analgesic activity in ICR mouse assessed as pain threshold at 0.1 umol/kg administered through oral gavage after 60 mins by tail flick method; format: functional
# [10] = tested on: Mus musculus; test: Analgesic activity in ICR mouse assessed as pain threshold at 0.1 umol/kg administered through oral gavage after 180 mins by tail flick method; format: functional
# [11] = tested on: Mus musculus; test: Analgesic activity in ICR mouse assessed as pain threshold at 0.055 umol/kg administered through oral gavage after 150 mins by tail flick method; format: functional
# [12] = tested on: Mus musculus; test: Antiinflammatory activity in ICR mouse assessed as inhibition of xylene-induced ear edema at 0.05 umol/kg, po administered 30 mins prior to xylene challenge measured after 2hrs; format: functional
# [13] = tested on: Mus musculus; test: Analgesic activity in ICR mouse assessed as pain threshold at 0.15 umol/kg administered through oral gavage after 150 mins by tail flick method; format: functional
# [14] = tested on: Mus musculus; test: Analgesic activity in ICR mouse assessed as pain threshold at 0.05 umol/kg administered through oral gavage after 30 mins by tail flick method; format: functional
# [15] = tested on: Mus musculus; test: Analgesic activity in ICR mouse assessed as pain threshold at 0.15 umol/kg administered through oral gavage after 180 mins by tail flick method; format: functional
# [16] = tested on: Mus musculus; test: Antiinflammatory activity in ICR mouse assessed as inhibition of xylene-induced ear edema at 0.15 umol/kg, po administered 30 mins prior to xylene challenge measured after 2hrs; format: functional
# [17] = tested on: Mus musculus; test: Analgesic activity in ICR mouse assessed as pain threshold at 0.15 umol/kg administered through oral gavage after 30 mins by tail flick method; format: functional
# [18] = tested on: Mus musculus; test: Analgesic activity in ICR mouse assessed as pain threshold at 0.05 umol/kg administered through oral gavage after 60 mins by tail flick method; format: functional
# [19] = tested on: Mus musculus; test: Analgesic activity in ICR mouse assessed as pain threshold at 0.055 umol/kg administered through oral gavage after 180 mins by tail flick method; format: functional
# [20] = tested on: HUVEC; test: Inhibition of simulated ischemia/reperfusion-induced human HUVEC cells death assessed as increase in tubular mitochondria levels at 30 ug/ml after 2 hrs by Hoechst 33342 dye based fluorescence assay (reference value: 11.3 +/- 2.1 %); format: functional; set-up: scale not given: the % may be the effect or the level left
# [21] = tested on: HUVEC; test: Inhibition of simulated ischemia/reperfusion-induced ROS production in human HUVEC cells at 30 ug/ml after 2 hrs by Hoechst 33342 dye based fluorescence assay; format: functional, cell-based
# [22] = tested on: Mus musculus; test: Analgesic activity in ICR mouse assessed as pain threshold at 0.15 umol/kg administered through oral gavage after 120 mins by tail flick method; format: functional
# [23] = tested on: HUVEC; test: Inhibition of simulated ischemia/reperfusion-induced cytochrome C release in human HUVEC cells at 30 ug/ml after 2 hrs by fluorescence assay (reference value: 75.3 +/- 5.2 %); format: functional; set-up: scale not given: the % may be the effect or the level left
# [24] = tested on: Mus musculus; test: Analgesic activity in ICR mouse assessed as pain threshold at 0.05 umol/kg administered through oral gavage after 90 mins by tail flick method; format: functional
# [25] = tested on: HUVEC; test: Inhibition of simulated ischemia/reperfusion-induced human HUVEC cells death assessed as decrease in fragmented mitochondria at 30 ug/ml after 2 hrs by Hoechst 33342 dye based fluorescence assay; format: functional, cell-based
# [26] = tested on: Mus musculus; test: Analgesic activity in ICR mouse assessed as pain threshold at 0.05 umol/kg administered through oral gavage after 120 mins by tail flick method; format: functional
# [27] = tested on: Mus musculus; test: Analgesic activity in ICR mouse assessed as pain threshold at 0.15 umol/kg administered through oral gavage after 60 mins by tail flick method; format: functional
# [28] = tested on: Mus musculus; test: Analgesic activity in ICR mouse assessed as pain threshold at 0.15 umol/kg administered through oral gavage after 90 mins by tail flick method; format: functional
smiles,measurement,setting,value
CCc1cc(O)ccc1C[C@H](NC(=O)COc1ccc(C2=[N+]([O-])C(C)(C)C(C)(C)N2[O])cc1)C(=O)N[C@@H](CCCNC(=N)N)C(=O)O,Activity,[1],22.34%
same,EC50,[2],31.3 µM
same,Activity,[3],10.78%
same,EC50,[4],8.1 µM
same,Activity,[5],21.89%
same,Activity,[6],22.78%
same,inhibition (INH),[7],30.26%
same,EC50,[8],22.7 µM
same,Activity,[9],17.31%
same,Activity,[10],15.04%
CC1(C)N([O])C(c2ccc(OCC(=O)N[C@@H](Cc3ccc(O)cc3)C(=O)N[C@@H](CCC(=O)O)C(=O)O)cc2)=[N+]([O-])C1(C)C,Activity,[1],15.11%
same,EC50,[2],31.3 µM
same,Activity,[3],11.1%
same,EC50,[4],8.1 µM
same,Activity,[5],26.41%
same,Activity,[6],13.58%
same,inhibition (INH),[7],32.22%
same,EC50,[8],22.7 µM
same,Activity,[9],13.44%
same,Activity,[10],14.22%
CC1(C)N([O])C(c2ccc(OCC(=O)NCCNC(=O)[C@H](Cc3ccc(O)cc3)NC(=O)[C@@H](N)CCCNC(=N)N)cc2)=[N+]([O-])C1(C)C,Activity,[11],11.91%
same,inhibition (INH),[12],21.21%
same,Activity,[1],37.11%
same,Activity,[13],39.13%
same,Activity,[14],7.48%
same,EC50,[2],32.5 µM
same,Activity,[3],15.28%
same,Activity,[15],27.67%
same,EC50,[4],19.5 µM
same,inhibition (INH),[16],58.15%
same,Activity,[17],17.89%
same,Activity,[18],10.35%
same,Activity,[19],9.14%
same,Activity,[20],41.5%
same,Activity,[21],Active
same,Activity,[22],50.61%
same,Activity,[5],35.74%
same,Activity,[6],48.17%
same,Activity,[23],47.8%
same,inhibition (INH),[7],50.68%
same,Activity,[24],13.57%
same,inhibition,[25],Active
same,EC50,[8],33.9 µM
same,Activity,[26],15.78%
same,Activity,[27],28.65%
same,Activity,[9],25.75%
same,Activity,[10],23.15%
same,Activity,[28],32.33%
CC1(C)N([O])C(c2ccc(OCC(=O)N[C@@H](CCCNC(=N)N)C(=O)N[C@@H](Cc3ccc(O)cc3)C(=O)O)cc2)=[N+]([O-])C1(C)C,Activity,[1],11.91%
same,EC50,[2],31.3 µM
same,Activity,[3],10.1%
same,EC50,[4],8.1 µM
same,Activity,[5],26.97%
same,Activity,[6],13.18%
same,inhibition (INH),[7],28.29%
same,EC50,[8],22.7 µM
same,Activity,[9],14.31%
same,Activity,[10],10.05%
CC1(C)N([O])C(c2ccc(OCC(=O)N[C@@H](Cc3ccc(O)c(CO)c3)C(=O)N[C@@H](CCCNC(=N)N)C(=O)O)cc2)=[N+]([O-])C1(C)C,Activity,[1],33.56%
same,EC50,[2],31.3 µM
same,Activity,[3],12.12%
same,EC50,[4],8.1 µM
same,Activity,[5],22.37%
same,Activity,[6],25.78%
same,inhibition (INH),[7],31.23%
same,EC50,[8],22.7 µM
same,Activity,[9],19.13%
same,Activity,[10],20.14%
CC1(C)N([O])C(c2ccc(OCC(=O)N[C@@H](Cc3ccc(O)cc3)C(=O)N[C@@H](CCCCN)C(=O)O)cc2)=[N+]([O-])C1(C)C,Activity,[1],33.73%
same,EC50,[2],31.3 µM
same,Activity,[3],12.56%
same,EC50,[4],8.1 µM
same,Activity,[5],29.31%
same,Activity,[6],38.33%
same,inhibition (INH),[7],36.94%
same,EC50,[8],22.7 µM
same,Activity,[9],19.35%
same,Activity,[10],13.58%
CC1(C)N([O])C(c2ccc(OCC(=O)N[C@@H](Cc3ccc(O)cc3)C(=O)N[C@@H](CCCNC(=N)N)C(=O)O)cc2)=[N+]([O-])C1(C)C,Activity,[1],34.14%
same,EC50,[2],31.3 µM
same,Activity,[3],12.53%
same,EC50,[4],8.1 µM
same,Activity,[5],31.45%
same,Activity,[6],40.01%
same,inhibition (INH),[7],40.86%
same,EC50,[8],22.7 µM
same,Activity,[9],18.66%
same,Activity,[10],14.45%
CC1(C)N([O])C(c2ccc(OCC(=O)NCCCNC(=O)[C@H](Cc3ccc(O)cc3)NC(=O)[C@@H](N)CCCNC(=N)N)cc2)=[N+]([O-])C1(C)C,Activity,[11],19.35%
same,inhibition (INH),[12],37.33%
same,Activity,[1],51.33%
same,Activity,[13],52.45%
same,Activity,[14],8.16%
same,EC50,[2],31.3 µM
same,Activity,[3],16.3%
same,Activity,[15],30.34%
same,EC50,[4],8.1 µM
same,inhibition (INH),[16],78.58%
same,Activity,[17],20.17%
same,Activity,[18],12.31%
same,Activity,[19],16.28%
same,Activity,[20],55.7%
same,Activity,[21],Active
same,Activity,[22],68.42%
same,Activity,[5],44.76%
same,Activity,[6],60.32%
same,Activity,[23],27.8%
same,inhibition (INH),[7],73.47%
same,Activity,[24],18.37%
same,inhibition,[25],Active
same,EC50,[8],22.7 µM
same,Activity,[26],25.36%
same,Activity,[27],33.47%
same,Activity,[9],29.36%
same,Activity,[10],22.01%
same,Activity,[28],50.35%
Cc1cc(C[C@H](NC(=O)COc2ccc(C3=[N+]([O-])C(C)(C)C(C)(C)N3[O])cc2)C(=O)N[C@@H](CCCNC(=N)N)C(=O)O)ccc1O,Activity,[1],13.25%
same,EC50,[2],31.3 µM
same,Activity,[3],10.24%
same,EC50,[4],8.1 µM
same,Activity,[5],22.1%
same,Activity,[6],31.21%
same,inhibition (INH),[7],29.47%
same,EC50,[8],22.7 µM
same,Activity,[9],18.97%
same,Activity,[10],12.38%
COc1cc(O)ccc1C[C@H](NC(=O)COc1ccc(C2=[N+]([O-])C(C)(C)C(C)(C)N2[O])cc1)C(=O)N[C@@H](CCCNC(=N)N)C(=O)O,Activity,[1],24.12%
same,EC50,[2],31.3 µM
same,Activity,[3],11.37%
same,EC50,[4],8.1 µM
same,Activity,[5],22.47%
same,Activity,[6],27.14%
same,inhibition (INH),[7],29.27%
same,EC50,[8],22.7 µM
same,Activity,[9],16.33%
same,Activity,[10],11.24%
